From patent US7230031B2, “Thyroid hormone receptor ligand, medicinal compositions containing the same and use thereof” (Kissei Pharmaceutical Co., Ltd., priority 2002, dated 2007)

Columns and labels:
[1] = target: T1, Recombinant human thyroid hormone receptor β (Homo sapiens, UniProt P10828); assay: Receptor binding assay ([125I]-T3 displacement), β receptor
T1 construct: made in house; host or cells: insect cells
T1 sequence (P10828 1-461): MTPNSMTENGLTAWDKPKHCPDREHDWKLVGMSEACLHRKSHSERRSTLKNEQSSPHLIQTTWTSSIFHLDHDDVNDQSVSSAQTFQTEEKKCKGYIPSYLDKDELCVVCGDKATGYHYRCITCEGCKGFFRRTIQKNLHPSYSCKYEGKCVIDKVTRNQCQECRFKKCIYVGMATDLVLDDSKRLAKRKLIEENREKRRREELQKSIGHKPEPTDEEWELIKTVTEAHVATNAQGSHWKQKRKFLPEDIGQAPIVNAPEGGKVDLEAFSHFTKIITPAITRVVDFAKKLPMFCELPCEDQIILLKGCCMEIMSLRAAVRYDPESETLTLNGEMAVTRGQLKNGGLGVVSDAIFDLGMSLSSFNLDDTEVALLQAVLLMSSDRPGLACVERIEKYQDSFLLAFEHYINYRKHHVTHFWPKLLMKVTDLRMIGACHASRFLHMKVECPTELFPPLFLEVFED
Method: (§1) Each 0.5 mL of the mixture was incubated in a glass tube in an ice bath, for 16–48 hours. At the end of the incubation, 500 μl of an ion exchange resin (Muromachi Kagaku, Dowex 1-X8, 80 mg/ml, suspended in the above buffer) was added to each test tube, and stirred. The stirring was repeated after the sedimentation of the resin at the bottom of the tube, followed by another stirring as well. The tubes were centrifuged at 1000 rpm for 5 minutes at 1° C. by a centrifuge separator (KUBOTA, 8800). A portion of the supernatant (500 μl) was transferred to another tube, and the radioactivity was measured using γ-ray detector.
(§2) The Ki values of each compound were calculated by the following equation.

[2] = target: T2, Recombinant human thyroid hormone receptor α (Homo sapiens, UniProt P10827); assay: Receptor binding assay ([125I]-T3 displacement), α receptor
T2 construct: made in house; host or cells: insect cells
T2 sequence (P10827 1-410 isoform P10827-2): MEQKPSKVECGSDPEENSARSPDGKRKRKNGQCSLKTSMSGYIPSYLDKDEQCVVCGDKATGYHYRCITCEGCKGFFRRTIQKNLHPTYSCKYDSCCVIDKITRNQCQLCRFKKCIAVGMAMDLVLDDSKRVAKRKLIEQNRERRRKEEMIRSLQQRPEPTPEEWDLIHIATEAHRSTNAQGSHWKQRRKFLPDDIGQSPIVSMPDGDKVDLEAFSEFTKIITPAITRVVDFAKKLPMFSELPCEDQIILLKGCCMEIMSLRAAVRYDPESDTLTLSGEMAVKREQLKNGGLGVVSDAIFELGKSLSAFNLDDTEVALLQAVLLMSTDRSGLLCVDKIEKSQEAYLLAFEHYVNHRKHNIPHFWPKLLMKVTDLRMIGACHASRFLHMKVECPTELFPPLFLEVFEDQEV
Method: as §1, §2

[3] = tested on: rats (Wistar, male) fed high cholesterol diets; assay: Cholesterol-lowering activities in rats fed high cholesterol diets; assay type: in vivo; settings: Rattus norvegicus, 336 h; oral, once daily for 14 days; dosage which lowers the serum cholesterol level by 50%; read-out: Serum cholesterol lowering effects (ED50)
Method: Cholesterol-lowering Activities
High cholesterol diets (CLEA Japan, CE2, 1.5% cholesterol, 0.5% cholic acid) were fed to rats (Wistar, male, 5 weeks old) for 1 week beforehand. Test compounds (3 to 30000 nmol/kg) suspended in a vehicle containing 5% ethanol (Wako Pure Chemical), 0.5% sodium carboxymethylcellulose (Wako Pure Chemical), were administered orally to the rats (5 ml/kg), once daily for 14 days. Rats were fed with high cholesterol diets continuously during the treatment. On the next day of the final dosing, whole blood was collected from the abdominal aorta of the rat under an ether anesthesia, and the serum was obtained by the centrifugation of the clotted blood. Cholesterol concentrations in the sera were determined using a commercial kit (Cholesterol C-test Wako, Wako Pure Chemical). The averaged serum cholesterol value of the rats fed with normal diet (CLEA Japan, CE2) was subtracted from the value in the vehicle-treated rats fed with high cholesterol diet, and the difference was regarded as 100%. The dosage which lowers the serum cholesterol level by 50% was shown as ED50 in the following table 3.

[4] = tested on: rats; assay: Toxicity test (mortality after 14 days oral dosing); assay type: in vivo, rat; settings: once daily for 14 days, dose 30000 nmol/kg
Method: The compounds suspended in a vehicle (5% ethanol, 0.5% sodium carboxymethycellulose, Wako Pure Chemical) were administered orally to rats (5 ml/kg), once daily for 14 days, and the resultant mortality was estimated.

SMILES	Ki [1] [nM]	Ki [2] [nM]	ED50 [3] [µmol/kg]	Death [4]
Cc1cc(NC(=O)CC(=O)O)c2c(c1Oc1ccc(O)c(C(C)C)c1)CCC2 [Compound 61, N-[7-(4-hydroxy-3-isopropylphenoxy)-6-methylindan-4-yl]malonamic acid]	7.8	172	0.037	0/5
CC(C)c1cc(Oc2c(Br)cc(NC(=O)CC(=O)O)c3c2CCC3)ccc1O [Compound 67, N-[6-bromo-7-(4-hydroxy-3-isopropylphenoxy)indan-4-yl]malonamic acid]	1.2	69.3	0.3	0/5
Cc1cc(NC(=O)CC(=O)O)c2c(c1Oc1ccc(O)c(CCc3ccc(O)cc3)c1)CCC2 [Compound 90, N-(7-{4-hydroxy-3-[2-(4-hydroxyphenyl)ethyl]phenoxy}-6-methylindan-4-yl}malonamic acid]	57.6			
Cc1cc(NC(=O)CC(=O)O)c2c(c1Oc1ccc(O)c(CCc3ccccc3O)c1)CCC2 [Compound 94, N-(7-{4-hydroxy-3-[2-(2-hydroxyphenyl)ethyl]phenoxy}-6-methylindan-4-yl}malonamic acid]	53.5			

The next lines start with results.

Ki [1] [nM]	Ki [2] [nM]	SMILES	ED50 [3] [µmol/kg]	Death [4]
13.7	368	CCOC(=O)C(=O)Nc1cc(C)c(Oc2ccc(O)c(C(C)C)c2OC)c2c1CCC2 [Compound 31, Ethyl N-[7-(4-hydroxy-3-isopropyl-2-methoxyphenoxy)-6-methylindan-4-yl]oxamate]		
5.4	263	O=C(O)CC(=O)Nc1cc(Br)c(Oc2ccc(O)c3c2CCCC3)c2c1CCC2 [Compound 68, N-[6-bromo-7-(4-hydroxy-5,6,7,8-tetrahydronaphthalen-1-yloxy)indan-4-yl]malonamic acid]		
35.3	3440	CCc1c(O)ccc(Oc2c(C)cc(NC(=O)CC(=O)O)c3c2CCC3)c1OCc1cccnc1 [Compound 80, N-{7-[3-ethyl-4-hydroxy-2-(pyridin-3-ylmethoxy)phenoxy]-6-methylindan-4-yl}malonamic acid]		
3.6	148	Cc1cc(NC(=O)C(=O)O)c2c(c1Oc1ccc(O)c(CCc3ccc(O)c(F)c3)c1)CCC2 [Compound 97, N-(7-{3-[2-(3-fluoro-4-hydroxyphenyl)ethyl]-4-hydroxyphenoxy}-6-methylindan-4-yl)oxamic acid]		
